This note sets out measurements from US20180163177A1, “SERUM-FREE CULTURE MEDIUM AND METHOD FOR EXPANDING HEMATOPOIETIC STEM CELLS” (HealthBanks Biotech Co. Ltd., priority 2016, published 2018).

This assay deals with CD34+ HSC. Kind of assay: HSC expansion without feeder layer, in SF-UCM or concentrated SF-UCM with supplements, 12-day culture. The conditions noted are these: day 12; no feeder layer; SCGM with 6 cytokines and hydrocortisone. It counts as cell-based. An excerpt:
To test potential replacement for the feeder layers, we have tested a serum-free umbilical cord mesenchymal stem cell conditioned medium (SF-UCM) from UC-MSC. The serum-free umbilical cord mesenchymal stem cell conditioned medium is for example produced by the method described above, comprising the steps of: (a) culturing an umbilical cord mesenchymal stem cell in a serum-free cell culture medium (e.g. serum-free SCGM), and (b) isolating the conditioned cell culture medium.
In FIG. 3A and FIG. 3B, the positive control (PC) group is in IMDM as described above. The PC & S1 groups shown in FIG. 3A and 3B are grown as follows: At day 0, CD34+ HSC are thawed and co-cultured with UC-MSC feeder for 12 days with a cell density of 2.5×10^4 cells/ml, using 5% CS (cord serum)/IMDM medium containing the 6 cytokines and hydrocortisone for PC group or using SCGM containing 6 cytokines, hydrocortisone and 4 supplements for S1 group.
The S3-2 group was grown as follows: At day 0, CD34+ HSC are thawed and cultured in a culture medium mixture of 50% (v/v) SF-UCM and 50% (v/v) fresh SCGM containing 6 cytokines, hydrocortisone and 4 supplements with a cell density of 2.5×10^4 cells/ml for 12 days. The 6 cytokines, hydrocortisone and 4 supplements used herein are the same as described in example 2.
During 12-day culture, 50% culture medium is replenished as well as newly prepared UC-MSC feeder every 4 days, and CD34+ cells are maintained at a cell density of 2.5-5×10^4 cells/ml. At day 12, cumulative total cell expansion folds and CD34+ expansion folds are calculated.
The following experiment is performed to evaluate the effect of replacing feeder layers with SF-UCM or concentrated SF-UCM. The SF-UCM obtained in Example 3 was further concentrated with a 5-10 kDa cut-off membrane (preferably a 5 kDa cut-off membrane) to obtain 10 times concentrated (in volume) conditioned medium. The concentrated conditioned medium was filtered with a 0.22 μm filter, and the filtrate is collected to obtain the desired con. SF-UCM (abbreviated as “c-SF-UCM”). The results of replacing the feeder layers with SF-UCM or con.
In FIG. 4A and 4B, the PC, Sl, and S3-2 groups are the same as described in Example 3. The S3-3 group is as follows: At day 0, CD34+ HSC are thawed and cultured in a culture medium mixture of 5% (v/v) concentrated SF-UCM and 95% (v/v) SCGM containing 6 cytokines, 4 supplements, and hydrocortisone with a cell density of 2.5×10^4 cells/ml for 12 days. The 6 cytokines, hydrocortisone and 4 supplements used herein are the same as described in example 2. The above medium mixture is 50% replenished every 4 days and the cells (including CD34+ cells) are maintained at a cell density of 2.5-10×10^4 cells/ml. At day 12, cumulative total cell expansion folds and CD34+ (ISHAGE) expansion folds are calculated.
At day 0, CD34+ HSC are thawed and cultured in a corresponding culture medium in the following groups: (1) SCGM+SP+UCM group: a culture medium mixture of 5% (v/v) c-SF-UCM and 95% (v/v) SCGM containing 6 cytokines, 4 supplements and hydrocortisone; (2) SCGM+SP group: SCGM containing 6 cytokines, 4 supplements and hydrocortisone; (3) SCGM+UCM group: a culture medium mixture of 5% (v/v) c-SF-UCM and 95% (v/v) SCGM containing 6 cytokines and hydrocortisone; and (4) SCGM group: SCGM containing 6 cytokines and hydrocortisone. The 6 cytokines, hydrocortisone and 4 supplements used herein are the same as described in example 2.
The cells are cultured at a cell density of 2.5×10^4 cells/ml. The above medium mixture is 50-80% replenished every 4 days and the cells (including CD34+ cells) are maintained at a cell density of 2.5-10×10^4 cells/ml. At day 12, cumulative total cell expansion folds and CD34+ (ISHAGE) expansion folds are calculated.
In this experiment, the PC group and S3-3 group is the same as the previous examples. The culture medium is 50% replenished every 4 days, and cells are maintained at a cell density of 2.5-5×10^4 cells/ml. […]
Consider `O=C1O[C@H]([C@@H](O)CO)C(O)=C1O` [vitamin C, L-ascorbic acid], for which the “CD34+ (ISHAGE) expansion folds” value is on record as “alone can support the expansion” and the “cumulative total cell expansion folds” value is “alone can support the expansion”.
Consider `Cc1c(C)c2c(c(C)c1O)CC[C@@](C)(CCC[C@H](C)CCC[C@H](C)CCCC(C)C)O2` [vitamin E, α-tocopherol], for which the “CD34+ (ISHAGE) expansion folds” value is reported as “alone is also sufficient in supporting the expansion” and the “cumulative total cell expansion folds” value is reported as “alone is also sufficient in supporting the expansion”.
As for “transferrin (TF): transferrin, supplement used at 30 μg/ml”, the “CD34+ (ISHAGE) expansion folds” value is on record as “does not further increase the enhancement to any appreciable extent” and the “cumulative total cell expansion folds” value is listed as “does not further increase the enhancement to any appreciable extent”.
